In ChEMBL document CHEMBL6074678, “Selectively Antagonizing the NOD1-Mediated Inflammatory Signaling Pathway Mitigates the Gastric Inflammation Induced by Helicobacter pylori Infection” (J Med Chem, 2024):

What was measured:
[1] = target: T1, Nucleotide-binding oligomerization domain-containing protein 1 (Mus musculus, UniProt Q8BHB0); assay: Antagonist activity at mouse NOD1 expressed in HEK-Blue cells assessed as decrease in SEAP secretion incubated for 3 hrs followed by C12-iE-DAP stimulation for 20 hrs by spectrophotometry; assay type: cell-based, HEK-Blue mNOD1
T1 sequence (Q8BHB0 whole entry): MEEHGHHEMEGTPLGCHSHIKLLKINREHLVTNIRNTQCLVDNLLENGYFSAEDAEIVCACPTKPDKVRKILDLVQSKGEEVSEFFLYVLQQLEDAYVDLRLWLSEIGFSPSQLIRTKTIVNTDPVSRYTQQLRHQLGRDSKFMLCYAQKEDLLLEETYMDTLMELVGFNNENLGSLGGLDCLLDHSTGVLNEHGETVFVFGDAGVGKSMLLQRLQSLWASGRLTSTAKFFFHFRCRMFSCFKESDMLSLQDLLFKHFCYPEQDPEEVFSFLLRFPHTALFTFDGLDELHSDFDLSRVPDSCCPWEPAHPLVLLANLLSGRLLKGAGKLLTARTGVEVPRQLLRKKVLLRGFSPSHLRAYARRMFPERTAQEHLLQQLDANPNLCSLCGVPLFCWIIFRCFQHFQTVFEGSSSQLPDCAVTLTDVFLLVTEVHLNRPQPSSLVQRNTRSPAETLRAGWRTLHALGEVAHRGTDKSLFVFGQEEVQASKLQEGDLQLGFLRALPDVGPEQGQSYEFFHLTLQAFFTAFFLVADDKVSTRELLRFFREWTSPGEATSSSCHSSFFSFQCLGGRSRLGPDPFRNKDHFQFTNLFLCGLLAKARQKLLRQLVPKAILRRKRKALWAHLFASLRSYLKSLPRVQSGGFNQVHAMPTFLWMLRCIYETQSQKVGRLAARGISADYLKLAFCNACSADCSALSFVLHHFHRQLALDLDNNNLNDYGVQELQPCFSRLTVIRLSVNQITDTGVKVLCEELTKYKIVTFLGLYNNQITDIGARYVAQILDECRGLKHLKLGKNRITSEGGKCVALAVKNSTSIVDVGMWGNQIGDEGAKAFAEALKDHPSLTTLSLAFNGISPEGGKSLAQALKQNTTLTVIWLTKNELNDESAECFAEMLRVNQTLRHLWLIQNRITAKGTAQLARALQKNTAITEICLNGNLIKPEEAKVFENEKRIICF

[2] = target: T2, Nucleotide-binding oligomerization domain-containing protein 1 (Mus musculus) (UniProt Q8BHB0); assay: Antagonist activity at mouse NOD1 expressed in HEK-Blue cells assessed as decrease in SEAP secretion at 5 uM incubated for 3 hrs followed by C12-iE-DAP stimulation for 20 hrs by spectrophotometry relative to control; assay type: cell-based
T2 sequence (whole entry): T1 sequence (Q8BHB0 whole entry)

[3] = target: T3, Nucleotide-binding oligomerization domain-containing protein 1 (Homo sapiens, UniProt Q9Y239); assay: Antagonist activity at human NOD1 expressed in HEK-Blue cells assessed as decrease in SEAP secretion incubated for 3 hrs followed by C12-iE-DAP stimulation for 20 hrs by spectrophotometry; assay type: cell-based, HEK-Blue hNOD1
T3 sequence (Q9Y239 whole entry): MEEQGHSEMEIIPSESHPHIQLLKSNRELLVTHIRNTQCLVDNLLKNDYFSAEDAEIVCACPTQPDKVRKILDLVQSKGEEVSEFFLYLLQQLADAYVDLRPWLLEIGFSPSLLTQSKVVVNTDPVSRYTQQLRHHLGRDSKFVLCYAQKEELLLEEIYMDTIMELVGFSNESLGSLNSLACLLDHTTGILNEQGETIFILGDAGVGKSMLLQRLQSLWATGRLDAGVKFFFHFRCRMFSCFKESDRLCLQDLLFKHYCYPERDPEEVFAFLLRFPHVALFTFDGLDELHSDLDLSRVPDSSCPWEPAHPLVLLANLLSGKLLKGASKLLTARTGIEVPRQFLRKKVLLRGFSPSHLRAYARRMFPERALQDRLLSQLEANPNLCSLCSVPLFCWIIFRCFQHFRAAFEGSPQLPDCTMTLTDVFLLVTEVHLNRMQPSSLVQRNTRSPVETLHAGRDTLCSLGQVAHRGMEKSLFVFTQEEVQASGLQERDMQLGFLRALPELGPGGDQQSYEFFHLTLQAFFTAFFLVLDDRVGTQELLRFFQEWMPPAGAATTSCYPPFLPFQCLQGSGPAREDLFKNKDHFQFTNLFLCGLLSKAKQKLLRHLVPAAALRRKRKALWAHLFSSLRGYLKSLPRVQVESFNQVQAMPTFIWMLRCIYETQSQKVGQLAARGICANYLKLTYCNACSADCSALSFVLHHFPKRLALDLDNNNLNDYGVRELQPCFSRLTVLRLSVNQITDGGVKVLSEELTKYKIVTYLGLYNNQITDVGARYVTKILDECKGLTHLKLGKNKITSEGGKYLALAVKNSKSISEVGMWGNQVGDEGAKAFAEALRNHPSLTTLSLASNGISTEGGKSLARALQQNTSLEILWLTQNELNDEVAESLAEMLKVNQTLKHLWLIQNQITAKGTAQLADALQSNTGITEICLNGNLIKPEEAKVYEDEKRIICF

[4] = target: T2, Nucleotide-binding oligomerization domain-containing protein 1 (Mus musculus); assay: Antagonist activity at mouse NOD1 expressed in HEK-Blue cells assessed as decrease in SEAP secretion at 1 uM incubated for 3 hrs followed by C12-iE-DAP stimulation for 20 hrs by spectrophotometry relative to control; assay type: cell-based
[5] = HEK-Blue mNOD1, filed as antagonist, time 23.0 hrs

Compound	IC50 [1]	IC50 [3]	inhibition [4, 5]	inhibition ([2]; HEK-Blue mNOD1, time 23.0 hrs)	further results
O=c1c2cc(Cl)ncc2nc(Cl)n1-c1ccc(Cl)c(NS(=O)(=O)c2cccnc2)c1	381 nM				
NC(=O)c1nc2ccc(Cl)cc2c(=O)n1-c1ccc(Cl)c(NS(=O)(=O)c2ccccc2F)c1					inhibition [2, 5]: 48.2%
O=c1c2ccncc2nc(Cl)n1-c1ccc(Cl)c(NS(=O)(=O)c2cc(F)c(F)cc2F)c1	159 nM	7.5 nM	81.8%		
O=c1c2cc(Cl)ncc2nc(Cl)n1-c1ccc(Cl)c(NS(=O)(=O)c2ccccc2Cl)c1	285 nM				
Cc1nc2ccc(Cl)cc2c(=O)n1-c1ccc(Cl)c(N2Cc3ccccc3S2(=O)=O)c1		11200 nM		14.5%	
O=c1c2cc(C(F)(F)F)ccc2nc(Cl)n1-c1ccc(Cl)c(NS(=O)(=O)c2ccccc2F)c1	624 nM				
O=c1c2ccncc2nc(C(F)F)n1-c1ccc(Cl)c(NS(=O)(=O)c2ccccc2F)c1					inhibition ([4]; HEK-Blue mNOD1, time 23.0 hrs): 19.1%
O=c1c2cc(Cl)ccc2nc(SCCOc2ccc(F)cc2)n1-c1ccc(Cl)c(NS(=O)(=O)c2ccccc2F)c1		746 nM		< 10%	
CC(C)NC(=O)CSc1nc2ccc(Cl)cc2c(=O)n1-c1ccc(Cl)c(NS(=O)(=O)c2ccccc2F)c1		25 nM		< 10%	
C=CC(=O)Nc1nc2ccc(Cl)cc2c(=O)n1-c1ccc(Cl)c(NS(=O)(=O)c2ccccc2F)c1	7210 nM	27 nM			inhibition [2, 5]: 53.3%
O=c1c2ccncc2nc(Cl)n1-c1ccc(Cl)c(NS(=O)(=O)c2ccc(F)cc2F)c1	193 nM		80.5%		
Nc1nc2ccc(Cl)cc2c(=O)n1-c1ccc(Cl)c(NS(=O)(=O)c2ccccc2F)c1		44 nM		27.3%	
Cc1noc(C)c1S(=O)(=O)Nc1cc(-n2c(Cl)nc3cnc(Cl)cc3c2=O)ccc1Cl	559 nM				
O=c1c2ccccc2nc(Cl)n1-c1ccc(Cl)c(NS(=O)(=O)c2ccccc2F)c1					inhibition ([4]; HEK-Blue mNOD1, time 23.0 hrs): < 10%
N#Cc1ccc2nc(Cl)n(-c3ccc(Cl)c(NS(=O)(=O)c4ccccc4F)c3)c(=O)c2c1	117 nM	9.7 nM	83.6%		
O=c1c2ccncc2nc(Cl)n1-c1ccc(Cl)c(NS(=O)(=O)c2cc(F)ccc2F)c1	165 nM	8.4 nM	81.8%		
Cc1nc2ccc(Cl)cc2c(=O)n1-c1ccc(Cl)c(NC(=O)c2ccccc2F)c1				< 10%	
CS(=O)(=O)c1ccc2nc(Cl)n(-c3ccc(Cl)c(NS(=O)(=O)c4ccccc4F)c3)c(=O)c2c1	110 nM	4.4 nM	88.9%		
N[C@@H](CCC(=O)N[C@@H](CSc1nc2cnccc2c(=O)n1-c1ccc(Cl)c(NS(=O)(=O)c2ccccc2F)c1)C(=O)NCC(=O)O)C(=O)O					inhibition ([4]; HEK-Blue mNOD1, time 23.0 hrs): -1%
O=c1c2cc(Cl)ncc2nc(Cl)n1-c1ccc(Cl)c(NS(=O)(=O)c2ccc(Cl)s2)c1	300 nM		76.5%		
Cc1nc2ccc(Cl)cc2c(=O)n1-c1ccc(Cl)c(N)c1				< 10%	
C=CS(=O)(=O)Nc1cc(-n2c(Cl)nc3cnc(Cl)cc3c2=O)ccc1Cl	1150 nM		70.2%		
O=c1c2ccncc2nc(C(F)(F)F)n1-c1ccc(Cl)c(NS(=O)(=O)c2ccccc2F)c1					inhibition ([4]; HEK-Blue mNOD1, time 23.0 hrs): 7.7%
Cc1nc2ccc(Cl)cc2c(=O)n1NS(=O)(=O)c1ccc(Cl)cc1				< 10%	
O=c1c2nc(Cl)cnc2nc(Cl)n1-c1ccc(Cl)c(NS(=O)(=O)c2ccccc2F)c1	1230 nM				

Compound	IC50 [1]	IC50 [3]	inhibition [4, 5]	inhibition ([2]; HEK-Blue mNOD1, time 23.0 hrs)	further results
O=c1c2cc(C(F)(F)F)ccc2nc(Cl)n1-c1ccc(Cl)c(NS(=O)(=O)c2c(F)cccc2F)c1	404 nM		65.3%		
O=c1c2cc(Cl)ccc2nc(NCCCN2CCOCC2)n1-c1ccc(Cl)c(NS(=O)(=O)c2ccccc2F)c1		32 nM			inhibition [2, 5]: 46.5%
O=c1c2ccncc2nc(Cl)n1-c1ccc(Cl)c(NS(=O)(=O)c2ccc([N+](=O)[O-])cc2F)c1	133 nM				
O=c1c2cc(Cl)ncc2nc(Cl)n1-c1ccc(Cl)c(NS(=O)(=O)c2ccc3c(c2)CCO3)c1	673 nM				
CCOC(=O)c1nc2ccc(Cl)cc2c(=O)n1-c1ccc(Cl)c(NS(=O)(=O)c2ccccc2F)c1				11.4%	
O=c1c2cc(-c3cccc(Cl)c3)ccc2nc(Cl)n1-c1ccc(Cl)c(NS(=O)(=O)c2ccccc2F)c1					inhibition ([4]; HEK-Blue mNOD1, time 23.0 hrs): 15.6%
Cc1nc2ccc(Cl)cc2c(=O)n1-c1ccc(Cl)c(C(=O)N2Cc3ccccc3S2(=O)=O)c1				< 10%	
O=c1c2cc(Br)ccc2nc(Cl)n1-c1ccc(Cl)c(NS(=O)(=O)c2ccccc2F)c1		18 nM	40.5%		
COc1cc2nc(Cl)n(-c3ccc(Cl)c(NS(=O)(=O)c4ccccc4F)c3)c(=O)c2cc1Cl					inhibition ([4]; HEK-Blue mNOD1, time 23.0 hrs): 39.3%
N#Cc1ccccc1S(=O)(=O)Nc1cc(-n2c(Cl)nc3cnc(Cl)cc3c2=O)ccc1Cl	121 nM	1.2 nM	86.3%		
O=C(CSc1nc2ccc(Cl)cc2c(=O)n1-c1ccc(Cl)c(NS(=O)(=O)c2ccccc2F)c1)Nc1ccccc1		44 nM		< 10%	
O=c1c2cc(F)c(F)cc2nc(Cl)n1-c1ccc(Cl)c(NS(=O)(=O)c2ccccc2F)c1	1300 nM		55.3%		
Cc1nc2ccc(Cl)cc2c(=O)n1CCCNS(=O)(=O)c1ccccc1F				< 10%	
Cc1nc2ccc(Cl)cc2c(=O)n1-c1ccc(Cl)c(C(=O)O)c1				< 10%	
O=c1c2cc(OC(F)(F)F)ccc2nc(Cl)n1-c1ccc(Cl)c(NS(=O)(=O)c2c(F)cccc2F)c1	2650 nM				inhibition ([4]; HEK-Blue mNOD1, time 23.0 hrs): 36.5%
O=c1c2cc(Cl)ncc2nc(Cl)n1-c1ccc(Cl)c(NS(=O)(=O)N2CCCCC2)c1		126 nM			inhibition ([4]; HEK-Blue mNOD1, time 23.0 hrs): 28.7%
O=c1c2cc(Cl)ncc2nc(Cl)n1-c1ccc(Cl)c(NS(=O)(=O)c2ccc3ncsc3c2)c1	132 nM		85.7%		
CS(=O)(=O)c1ccc2nc(Cl)n(-c3ccc(Cl)c(NS(=O)(=O)c4ccc([N+](=O)[O-])cc4F)c3)c(=O)c2c1	199 nM		82.3%		
Nc1ccc(Cl)cc1C(=O)Nc1ccc(Cl)c(NS(=O)(=O)c2ccccc2F)c1				32.9%	
Cc1nc2ccc(Cl)cc2c(=O)n1-c1ccc(Cl)c(S(=O)(=O)Nc2ccccc2F)c1				21.1%	
COc1ccc2nc(Cl)n(-c3ccc(Cl)c(NS(=O)(=O)c4ccccc4F)c3)c(=O)c2c1					inhibition ([4]; HEK-Blue mNOD1, time 23.0 hrs): < 10%
O=c1c2cc(Cl)ncc2nc(Cl)n1-c1ccc(Cl)c(NS(=O)(=O)c2c(F)cccc2F)c1	67 nM	1.3 nM	87.5%		
O=c1c2cc([N+](=O)[O-])ccc2nc(Cl)n1-c1ccc(Cl)c(NS(=O)(=O)c2ccccc2F)c1	860 nM	9.1 nM	52.1%		
CC(=O)Nc1ccc(Cl)c(NS(=O)(=O)c2ccccc2F)c1				< 10%	
Cn1cc(S(=O)(=O)Nc2cc(-n3c(Cl)nc4cnc(Cl)cc4c3=O)ccc2Cl)cn1	267 nM	3.1 nM	77.6%		
